Source: EP0641564A1, “OPTICALLY ACTIVE CONDENSED PYRAZOLE COMPOUND FOR USE IN TREATING THROMBOCYTOPENIA AND ERYTHROPENIA” (YOSHITOMI PHARMACEUTICAL INDUSTRIES, LTD., priority 1992, dated 1993)

Assays:
rats = assay: Acute toxicity test; assay type: in vivo; details: orally administered to rats, dose of 1000 mg/kg
Method: Experimental Example 9 : Acute toxicity test
Compound A, Compound B or Compound C was orally administered to rats. As a result, no death case was found at a dose of 1000 mg/kg.

[1] = tested on: mice irradiated with X-rays; assay: Promoting action on recovery of erythrocyte count in mice irradiated with X-rays (therapeutic effects); assay type: in vivo, BALB/c mice; details: day 14, mean±SD
Method: Experimental Example 4 : Promoting action on recovery of erythrocyte count in mice irradiated with X-rays (therapeutic effects)
BALB/c mice (4-5 weeks old) were exposed to 4.0 Gy total body irradiation. Compound A was intravenously administered for 9 consecutive days starting from the next day of the X-ray irradiation to 9 days thereafter. On day 14 after the X-ray irradiation, blood was taken from orbital vein plexus of mice and erythrocyte count was measured using an automatic cell counter. The experiment was done with 6 mice per group and the results are shown as mean value±standard deviation.

[2] = tested on: mice transplanted with bone marrow; assay: Promoting action on recovery of leukocyte count in mice transplanted with bone marrow; assay type: in vivo, ICR mice; details: for Leukocyte count: X-irradiation (8.0 Gy)+bone marrow transplantation (day 0, 7, 14); for Leukocyte count / Increase in leukocyte count: day 38; for Increase in leukocyte count: relative ratio of increased count to decreased count of bone marrow transplanted mice
Method: Experimental Example 8 : Promoting action on recovery of leukocyte count in mice transplanted with bone marrow
ICR mice (6-8 weeks old) were exposed to 8.0 Gy total body irradiation and 10⁷ bone marrow cells from the mice of the same species were transplanted to the mice. The bone marrow transplantation was performed three times on day 0, day 7 and day 14. Then, the compound of the present invention was intravenously administered for 14 consecutive days starting from the next day of the first bone marrow transplantation. On day 38 after the first bone marrow transplantation, blood was taken and leukocyte count was measured using an automatic cell counter. The experiment was done with 5 mice per group. The relative ratio of the increased leukocyte count to the decreased leukocyte count of the mice transplanted with bone marrow was calculated and expressed in percentage.

[3] = tested on: mice irradiated with X-rays; assay: Promoting action on recovery of erythrocyte count in mice irradiated with X-rays (preventive effects); assay type: in vivo, BALB/c mice; details: mean±SD
Method: Experimental Example 3 : Promoting action on recovery of erythrocyte count in mice irradiated with X-rays (preventive effects)
BALB/c mice (4-5 weeks old) were exposed to 4.0 Gy total body irradiation. Compound A was intravenously administered for 3 consecutive days starting from 3 days before and up to the previous day of the irradiation. On day 19 and day 22 after the X-ray irradiation, blood was taken from orbital vein plexus of mice and erythrocyte count was measured using an automatic cell counter. The experiment was done with 8 mice per group and the results are shown as mean value±standard deviation.

[4] = tested on: mice transplanted with bone marrow; assay: Promoting action on recovery of platelet count in mice transplanted with bone marrow; assay type: in vivo, ICR mice; details: day 11; for Platelet count: X-irradiation (8.0 Gy)+bone marrow transplantation; for Increase in platelet count: difference between untreated group and bone marrow transplanted group = 100%
Text: Experimental Example 1 : Promoting action on recovery of platelet count in mice transplanted with bone marrow
(§1) ICR mice (6-8 weeks old) were exposed to 8.0 Gy total body irradiation and 10⁷ bone marrow cells from the mice of the same species were transplanted to the mice. Then, Compound A or Compound B was intravenously administered for 9 consecutive days starting from the next day of the bone marrow transplantation. On day 11 after the bone marrow transplantation, heparinized blood was taken from the abdominal aorta of mice and platelet count was measured using an automatic cell counter. The experiment was done with 5 mice per group. The difference in platelet count between an untreated group and the bone marrow transplanted group was taken as 100%, based on which increase in the platelet count was calculated.

[5] = tested on: rats administered with anti-tumor drug; assay: Promoting action on recovery of decreased platelet count in rats administered with anti-tumor drug (nimustine hydrochloride); assay type: in vivo, SD rats; details: 1.0 mg/kg i.v. on day 8, 9, 10 and 14 after initial nimustine hydrochloride
Method: Experimental Example 2 : Promoting action on recovery of decreased platelet count in rats administered with anti-tumor drug
An anti-tumor drug, nimustine hydrochloride, (30 mg/kg) was intravenously administered to SD rats (6 weeks old) and 15 mg/kg thereof was intravenously administered the next day. Compound A was intravenously administered for 4 days on day 8, day 9, day 10 and day 14 after the initial administration of nimustine hydrochloride. On certain days after the administration, heparinized blood was taken from the rat tail vein and platelet count was measured using an automatic cell counter. The experiment was done with 4-6 rats per group.

[6] = tested on: mice transplanted with bone marrow; assay: Promoting action on recovery of erythrocyte count in mice transplanted with bone marrow; assay type: in vivo, ICR mice; details: X-irradiation (8.0 Gy)+bone marrow transplantation, day 11
Text: Experimental Example 5 : Promoting action on recovery of erythrocyte count in mice transplanted with bone marrow
as §1, with “A” for “A or Compound B”, “erythrocyte” for “platelet”, “group.” for “group. The difference in platelet count between an untreated group and the bone marrow transplanted group was taken as 100%, based on which increase in the platelet count was calculated.”

[7] = tested on: mice administered with cyclophosphamide; assay: Stimulating action on recovery of leukocyte count (cyclophosphamide-treated mice); assay type: in vivo, ICR mice; details: for Leukocyte count: cyclophosphamide 200 mg/kg i.p., day 4; for Increase in leukocyte count: relative ratio to count of mice administered with cyclophosphamide (=100)
Method: Experimental Example 7 : Stimulating action on recovery of leukocyte count
ICR mice (20-25 g body weight) were intraperitoneally administered with 200 mg/kg of cyclophosphamide and the compound of the present invention was intravenously administered for 3 days starting from the next day of the administration. On day 4 after the cyclophosphamide administration, the blood of the ICR mice was taken and leukocyte count was measured using Coulter counter. The relative ratio of the count to the peripheral leukocyte count of the mice administered with cyclophosphamide was calculated and expressed in percentage.

[8] = 0.01 mg/kg i.v. for 14 consecutive days
[9] = 0.1 mg/kg i.v. for 14 consecutive days
[10] = 0.01 mg/kg i.v. for 3 consecutive days before 4.0 Gy irradiation
[11] = 0.1 mg/kg i.v. for 3 consecutive days before 4.0 Gy irradiation
[12] = 1 mg/kg i.v. for 3 consecutive days before 4.0 Gy irradiation

## CC(CN(C)C)Oc1ccc(-c2nn(CC(=O)O)c3ncccc23)cc1 (stereo not drawn) [Comp. A, 3-[4-(2-dimethylamino-1-methylethoxy)phenyl]-1H-pyrazolo[3,4-b]pyridine-1-acetic acid]
rats
  death cases (acute toxicity): no death case
[1]; 0.01 mg/kg i.v. for 9 consecutive days after 4.0 Gy irradiation
  Erythrocyte count: 535±98 10⁴/mm³
[1]; 0.1 mg/kg i.v. for 9 consecutive days after 4.0 Gy irradiation
  Erythrocyte count: 686±72 10⁴/mm³
[2]; [8]
  Leukocyte count: 65±7 10²/mm³
[2]; 0.01 mg/kg i.v.
  Increase in leukocyte count: 30%
[2]; [9]
  Leukocyte count: 75±5 10²/mm³
[2]; 0.1 mg/kg i.v.
  Increase in leukocyte count: 46%
[2]; 1 mg/kg i.v. for 14 consecutive days
  Leukocyte count: 81±4 10²/mm³
[2]; 1 mg/kg i.v.
  Increase in leukocyte count: 56%
[3]; [10]
  Erythrocyte count day 19: 835±102 10⁴/mm³
  Erythrocyte count day 22: 904±45 10⁴/mm³
[3]; [11]
  Erythrocyte count day 19: 837±118 10⁴/mm³
  Erythrocyte count day 22: 916±86 10⁴/mm³
[3]; [12]
  Erythrocyte count day 19: 856±118 10⁴/mm³
  Erythrocyte count day 22: 932±86 10⁴/mm³
[4]; Table 1, 0.01 mg/kg i.v. for 9 consecutive days
  Platelet count: 27.4±9.6 10⁴/mm³
[4]; Table 1, 0.01 mg/kg i.v.
  Increase in platelet count: 30%
[4]; Table 1, 0.03 mg/kg i.v. for 9 consecutive days
  Platelet count: 31.4±11.4 10⁴/mm³
[4]; Table 1, 0.03 mg/kg i.v.
  Increase in platelet count: 41%
[4]; Table 1, 0.1 mg/kg i.v. for 9 consecutive days
  Platelet count: 42.3±10.6 10⁴/mm³
[4]; Table 1, 0.1 mg/kg i.v.
  Increase in platelet count: 71%
[4]; Table 1, 0.3 mg/kg i.v. for 9 consecutive days
  Platelet count: 49.8±9.7 10⁴/mm³
[4]; Table 1, 0.3 mg/kg i.v.
  Increase in platelet count: 91%
[5]; day 25
  Platelet count day 25: 17.7±21.8 10⁴/mm³
[5]; day 44
  Platelet count day 44: 57.3±20.2 10⁴/mm³
[6]; 0.01 mg/kg i.v. for 9 consecutive days
  Erythrocyte count: 699±51 10⁴/mm³
[6]; 0.1 mg/kg i.v. for 9 consecutive days
  Erythrocyte count: 714±56 10⁴/mm³
[7]; 0.01 mg/kg i.v. for 3 days
  Leukocyte count: 18±8 10²/mm³
[7]; 0.01 mg/kg i.v.
  Increase in leukocyte count: 164%
[7]; 0.1 mg/kg i.v. for 3 days
  Leukocyte count: 25±6 10²/mm³
[7]; 0.1 mg/kg i.v.
  Increase in leukocyte count: 227%
[7]; 1 mg/kg i.v. for 3 days
  Leukocyte count: 30±6 10²/mm³
[7]; 1 mg/kg i.v.
  Increase in leukocyte count: 273%

## CCOC(=O)Cn1nc(-c2ccc(O[C@@H](C)CN(C)C)cc2)c2cccnc21.Cl [Compound C, ethyl (S)-3-[4-(2-dimethylamino-1-methylethoxy)phenyl]-1H-pyrazolo[3,4-b]pyridine-1-acetate hydrochloride]
rats
  death cases (acute toxicity): no death case

## C[C@@H](CN(C)C)Oc1ccc(-c2nn(CC(=O)O)c3ncccc23)cc1 [Comp. B, (S)-3-[4-(2-dimethylamino-1-methylethoxy)phenyl]-1H-pyrazolo[3,4-b]pyridine-1-acetic acid]
rats
  death cases (acute toxicity): no death case
[2]; [8]
  Leukocyte count: 76±10 10²/mm³
[2]; 0.01 mg/kg i.v.
  Increase in leukocyte count: 48%
[2]; [9]
  Leukocyte count: 89±6 10²/mm³
[2]; 0.1 mg/kg i.v.
  Increase in leukocyte count: 69%
[2]; bone marrow transplanted mice, comparison from Table 8
  strength of leukocyte count recovery effect relative to Compound A: about ten times stronger effect
[4]; Table 2, 0.01 mg/kg i.v. for 9 consecutive days
  Platelet count: 45.9±6.7 10⁴/mm³
[4]; Table 2, 0.01 mg/kg i.v.
  Increase in platelet count: 65%
[4]; Table 2, 0.03 mg/kg i.v. for 9 consecutive days
  Platelet count: 54.8±13.6 10⁴/mm³
[4]; Table 2, 0.03 mg/kg i.v.
  Increase in platelet count: 81%
[7]; 0.003 mg/kg i.v. for 3 days
  Leukocyte count: 19±5 10²/mm³
[7]; 0.003 mg/kg i.v.
  Increase in leukocyte count: 173%
[7]; 0.03 mg/kg i.v. for 3 days
  Leukocyte count: 27±5 10²/mm³
[7]; 0.03 mg/kg i.v.
  Increase in leukocyte count: 245%
[7]; 0.3 mg/kg i.v. for 3 days
  Leukocyte count: 30±6 10²/mm³
[7]; 0.3 mg/kg i.v.
  Increase in leukocyte count: 273%
[7]; cyclophosphamide-pretreated mice, comparison from Table 7
  strength of leukocyte count recovery effect relative to Compound A: about three times stronger effect
